The data set in a line: A: acetonitrile + 0.1% formic acid + 10 mM ammonium formate; B: 5% water + 95% acetonitrile + 0.1% formic acid + 10 mM ammonium formate; gradient (min/%B) 0/10 2/10 22/100 27/100 27.1/10. As to conditions: stereoisomer not certain.

`CCCCc1oc2ccccc2c1C(=O)c1cc(I)c(OCCN(CC)CC)c(I)c1` [Amiodarone]: the LC retention time worked out at 0.756 min.

Regarding `O=c1[nH]cnc2nc[nH]c12` [Hypoxanthine], the LC retention time was determined as 2.29 min.

As for `Cc1cn(C2CC(O)C(CO)O2)c(=O)[nH]c1=O` (stereo unspecified) [Thymidine], the LC retention time was determined as 1.04 min.

Consider `O=c1[nH]c(=O)n(C2CC(O)C(CO)O2)cc1I` (single isomer, unassigned; (+)) [(+)-5-Iodo-2'-deoxyuridine], for which the LC retention time is 0.729 min.

Consider `OC(CCN1CCCCC1)(c1ccccc1)C1CCCCC1` (stereo unspecified) [Benzhexol], for which the LC retention time amounted to 0.91 min.

As for `COC(=O)C1=CCCN(C)C1` [Arecoline], the LC retention time amounted to 2.06 min.

With `CCCCC(=O)N(Cc1ccc(-c2ccccc2-c2nn[nH]n2)cc1)C(C(=O)O)C(C)C` (stereo unspecified) [Valsartan], the LC retention time was determined as 0.733 min.

As for `CCCCCCCC(=O)NCC(=O)O` [Capryloyl glycine], the LC retention time is 0.943 min.

Turning to `CC(CS)C(=O)N1CCCC1C(=O)O` (stereo unspecified) [Captopril], the LC retention time was 1.1 min.

Consider `CN=C(NC#N)NCCSCc1nc[nH]c1C` [Cimetidine], for which the LC retention time was determined as 2.59 min.

Regarding `COc1ccc(Cl)cc1C(=O)NCCc1ccc(S(=O)(=O)NC(=O)NC2CCCCC2)cc1` [Glibenclamide], the LC retention time was determined as 0.446 min.

As to `CN1CC(=O)N2C(Cc3c([nH]c4ccccc34)C2c2ccc3c(c2)OCO3)C1=O` (stereo unspecified) [Tadalafil], the LC retention time is 0.457 min.

Take `Cc1c(OCC(F)(F)F)ccnc1CS(=O)c1nc2ccccc2[nH]1` (stereo unspecified) [Lansoprazole]: the LC retention time was 0.475 min.

As to `NCC(O)CCC(N)C(=O)O` (racemic) [DL-5-Hydroxylysine], the LC retention time turned out to be 7.93 min.

For the compound `Cc1occc(=O)c1O` [3-Hydroxy-2-methyl-4-pyrone], the LC retention time worked out at 0.613 min.

Take `CCCCCCCCCCCCOC(=O)c1cc(O)c(O)c(O)c1` [Lauryl gallate]: the LC retention time turned out to be 0.455 min.

For the compound `CC(=O)NC(CCC(N)=O)C(=O)O` [N-alpha-Acetyl-L-glutamine], the LC retention time turned out to be 5.85 min.

`NCCc1c[nH]c2ccccc12` [Tryptamine]: the LC retention time was found to be 2.25 min.

Regarding `CC1=C(CC(=O)O)c2cc(F)ccc2C1=Cc1ccc(S(C)=O)cc1` (stereo unspecified) [Sulindac], the LC retention time was determined as 0.56 min.

Regarding `O=P(O)(O)OC(CO)CO` [beta-Glycerophosphoric acid], the LC retention time came out at 6.56 min.

In the case of `NCCC(=O)NC(Cc1cnc[nH]1)C(=O)O` [L-Carnosine], the LC retention time stood at 7.75 min.

`NCCc1ccc(O)c(O)c1` [Dopamine]: the LC retention time was determined as 4.22 min.

As for `CN(C)CCCN1c2ccccc2Sc2ccc(Cl)cc21` [Chlorpromazine], the LC retention time is 1 min.

On to `CC(=O)NCCCNCCCCNCCCN` [N1-Acetylspermine], for which the LC retention time is 8.5 min.

On to `CC(C)C[C@H](NC(=O)CN)C(=O)O` [Glycyl-L-leucine], for which the LC retention time is 5.81 min.

As for `COc1ccc(CC(=O)O)cc1OC` [3,4-Dimethoxyphenylacetic acid], the LC retention time came to 0.554 min.

With `NC(=O)c1cccnc1` [Niacinamide], the LC retention time came out at 0.678 min.

Regarding `CCCCNC(=O)NS(=O)(=O)c1ccc(C)cc1` [Tolbutamide], the LC retention time stood at 0.432 min.

Take `CSc1ccc2c(c1)N(CCC1CCCCN1C)c1ccccc1S2` (stereo unspecified) [Thioridazine]: the LC retention time turned out to be 0.953 min.

For the compound `CC12CC3CC(C)(C1)CC(N)(C3)C2` [Memantine], the LC retention time was 1.94 min.

As to `COc1cc(/C=C/C(=O)O)ccc1O` [Ferulic acid], the LC retention time amounted to 0.564 min.

With `O=C(O)CCCCCCCCCCCC(=O)O` [1,11-Undecanedicarboxylic acid], the LC retention time amounted to 0.554 min.

As to `COC(=O)c1cccnc1` [Methyl nicotinate], the LC retention time was 0.625 min.

Consider `CC(=O)NC(Cc1c[nH]c2ccccc12)C(=O)O` (racemic) [N-Acetyl-DL-Tryptophan], for which the LC retention time was found to be 1.32 min.

`O=C(C=Cc1ccccc1)OCc1ccccc1` [Benzyl cinnamate]: the LC retention time amounted to 0.413 min.

In the case of `O=C(O)C(O)Cc1c[nH]c2ccccc12` (racemic) [DL-Indole-3-lactic acid], the LC retention time was found to be 0.968 min.

Turning to `CNCCc1ccc(O)cc1` [N-Methyltyramine], the LC retention time was determined as 2.53 min.

Consider `NCCc1ccc(O)cc1` [Tyramine], for which the LC retention time worked out at 3.19 min.

For the compound `NCCc1c[nH]c2ccc(O)cc12` [Serotonin], the LC retention time came out at 3.29 min.

Take `O=C(O)CNC(=O)c1ccccc1O` [2-Hydroxy Hippuric Acid]: the LC retention time came out at 1.14 min.

With `CC(=CC(=O)O)C(=O)O` [Citraconic acid], the LC retention time was found to be 0.78 min.

Regarding `Cc1ncc(CO)c(C(=O)O)c1O` [4-Pyridoxic acid], the LC retention time worked out at 0.875 min.

In the case of `Cc1ccc(S(=O)(=O)NC(=O)NN2CC3CCCC3C2)cc1` (stereo unspecified) [Gliclazide], the LC retention time amounted to 0.423 min.

For the compound `CC(=O)C1=CCC2C3CCC4=CC(=O)CCC4(C)C3CCC12C` (stereo unspecified) [16-Dehydroprogesterone], the LC retention time was found to be 0.423 min.

Take `C=C(C)C1Cc2c(ccc3c2OC2COc4cc(OC)c(OC)cc4C2C3=O)O1` (stereo unspecified) [Rotenone]: the LC retention time is 0.416 min.

As to `CCc1cccc2c3c([nH]c12)C(CC)(CC(=O)O)OCC3` (stereo unspecified) [Etodolac], the LC retention time came to 0.453 min.

As for `NC(=O)N1c2ccccc2C=Cc2ccccc21` [Carbamazepine], the LC retention time came to 0.469 min.

Take `CC(=O)C1(O)CCC2C3CCC4=CC(=O)CCC4(C)C3CCC21C` (stereo not drawn) [17-alpha-Hydroxyprogesterone]: the LC retention time amounted to 0.437 min.

With `CN(C)CCOC(c1ccccc1)c1ccccc1` [Diphenhydramine], the LC retention time was found to be 0.944 min.

In the case of `O=C(O)c1ccccc1C(=O)O` [Phthalic acid], the LC retention time came to 0.963 min.

Take `CC(C)(CO)C(O)C(=O)NCCC(=O)O` (single isomer, unassigned; (+)) [(+)-Pantothenic acid]: the LC retention time was 2.17 min.

On to `NC(=O)NCCCC[C@H](N)C(=O)O` [L-Homocitrulline], for which the LC retention time was determined as 6.59 min.

For `O=c1[nH]c(=O)c2cn[nH]c2[nH]1` [Oxipurinol], the LC retention time was found to be 1.88 min.

In the case of `COc1ccc(-c2coc3cc(O)ccc3c2=O)cc1` [Formononetin], the LC retention time was 0.446 min.

As to `O=C(O)C=CCCCCCCCCC(=O)O` [Traumatic acid], the LC retention time is 0.561 min.

`CN(C)CCOc1ccc(C(=C(CCCl)c2ccccc2)c2ccccc2)cc1` [Toremifene]: the LC retention time was determined as 0.772 min.

For `COc1ccc(OC)c(C(O)C(C)N)c1` (stereo unspecified) [Methoxamine], the LC retention time turned out to be 2.4 min.

As to `Cc1ncc(CO)c(CO)c1O` [Pyridoxine], the LC retention time turned out to be 1.92 min.

Turning to `CN[C@H](CC(=O)O)C(=O)O` [N-Methyl-D-aspartic acid], the LC retention time was 7.02 min.

`O=C(O)CNC(=O)c1ccc(O)cc1` [2-[(4-Hydroxyphenyl)formamido]acetic acid]: the LC retention time is 3.64 min.

On to `CC(C)C[C@H](N)C(=O)N[C@@H](C)C(=O)O` [L-Leucyl-L-alanine], for which the LC retention time is 5.82 min.

With `O=C(O)c1c[nH]c2ccccc12` [Indole-3-carboxylic acid], the LC retention time came to 0.506 min.

On to `O=c1[nH]c(=O)c2ncn(C3OC(COP(=O)(O)O)C(O)C3O)c2[nH]1` (stereo unspecified) [Xanthosine 5'-monophosphate], for which the LC retention time was 7.42 min.

As to `CC(CCC(=O)NCCS(=O)(=O)O)C1CCC2C3CCC4CC(O)CCC4(C)C3CC(O)C12C` (stereo unspecified) [Taurodeoxycholic acid], the LC retention time is 2.71 min.

As for `CCCCCCCCCCCCCCCC(=O)OCC(COP(=O)(O)O)OC(=O)CCCCCCCCCCCCCCC` (stereo unspecified) [1,2-Dipalmitoyl-sn-glycero-3-phosphate], the LC retention time worked out at 2.45 min.

As for `O=c1c(O)c(-c2ccc(O)c(O)c2)oc2cc(O)cc(O)c12` [Quercetin], the LC retention time worked out at 0.592 min.

Consider `O=C(O)/C=C/c1ccccc1` [trans-Cinnamic acid], for which the LC retention time is 0.485 min.

As for `COc1ccc2c(c1)C(=O)N(CCc1ccc(S(=O)(=O)NC(=O)NC3CCCCC3)cc1)C(=O)C2(C)C` [Gliquidone], the LC retention time is 0.417 min.

Regarding `CC(C)CC(=O)NCC(=O)O` [N-Iso valerylglycine], the LC retention time worked out at 1.63 min.

For the compound `N[C@H]1C(O)O[C@H](CO)[C@@H](O)[C@@H]1O` (stereo partly drawn) [D-(+)-Glucosamine], the LC retention time came to 6.72 min.

In the case of `OC[C@H]1O[C@@H](O[C@H]2[C@H](O)[C@@H](O)[C@H](O)O[C@@H]2CO)[C@H](O)[C@@H](O)[C@H]1O` [beta-Lactose], the LC retention time amounted to 6.75 min.

Consider `CCN(Cc1cccc(S(=O)(=O)O)c1)c1ccc(C(=C2C=CC(=[N+](CC)Cc3cccc(S(=O)(=O)O)c3)C=C2)c2ccccc2S(=O)(=O)[O-])cc1` [Erioglaucine], for which the LC retention time is 4.34 min.

Turning to `O=C(O)c1ccccn1` [2-Picolinic acid], the LC retention time is 3.08 min.

For `CN(C)CCCN1c2ccccc2CCc2ccccc21` [Imipramine], the LC retention time was found to be 0.939 min.

Consider `Cc1cn(C2OC(CO)C(O)C2O)c(=O)[nH]c1=O` (stereo unspecified) [5-Methyluridine], for which the LC retention time was found to be 1.78 min.

`CCC[C@H](N)C(=O)O` [L-Norvaline]: the LC retention time is 5.65 min.

Turning to `NC(CCSCC(N)C(=O)O)C(=O)O` (stereo unspecified) [Cystathionine], the LC retention time came out at 8.01 min.

With `O=C(c1ccc(OCCN2CCCCC2)cc1)c1c(-c2ccc(O)cc2)sc2cc(O)ccc12` [Raloxifene], the LC retention time came to 1.42 min.

Take `CC(=O)Oc1cc(C)c(OC(C)=O)c2ccccc12` [Vitamin K4]: the LC retention time came to 0.412 min.

Consider `Cc1cnc(C(=O)NCCc2ccc(S(=O)(=O)NC(=O)NC3CCCCC3)cc2)cn1` [Glipizide], for which the LC retention time stood at 0.463 min.

For `C[N+](C)(C)C[C@H](O)CC(=O)[O-]` [L-Carnitine], the LC retention time worked out at 6.22 min.

The values above are taken from the RepoRT retention time repository.
